Source: PubChem BioAssay (NCI)
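Each compound was tested at five concentrations against cells in 96-well plates for 48 hours. GI50 marks 50% less growth. TGI: total growth inhibition.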

Experiments:
Assay in all cases: NCI-60 cell line screen, 48 h
NCI-H460 lung = test system: NCI-H460 lung
NCI-H522 lung = test system: NCI-H522 lung
NCI/ADR-RES ovarian = test system: NCI/ADR-RES ovarian
OVCAR-3 ovarian = test system: OVCAR-3 ovarian
OVCAR-4 ovarian = test system: OVCAR-4 ovarian
OVCAR-5 ovarian = test system: OVCAR-5 ovarian
OVCAR-8 ovarian = test system: OVCAR-8 ovarian
PC-3 prostate = test system: PC-3 prostate
RPMI-8226 leukemia = test system: RPMI-8226 leukemia
RXF 393 renal = test system: RXF 393 renal
SF-268 CNS = test system: SF-268 CNS
SF-295 CNS = test system: SF-295 CNS
SF-539 CNS = test system: SF-539 CNS
SK-MEL-2 melanoma = test system: SK-MEL-2 melanoma
SK-MEL-28 melanoma = test system: SK-MEL-28 melanoma
SK-MEL-5 melanoma = test system: SK-MEL-5 melanoma
SK-OV-3 ovarian = test system: SK-OV-3 ovarian
SN12C renal = test system: SN12C renal
SNB-19 CNS = test system: SNB-19 CNS
SNB-75 CNS = test system: SNB-75 CNS
SR leukemia = test system: SR leukemia
SW-620 colon = test system: SW-620 colon
T-47D breast = test system: T-47D breast
TK-10 renal = test system: TK-10 renal
U251 CNS = test system: U251 CNS
UACC-257 melanoma = test system: UACC-257 melanoma
UACC-62 melanoma = test system: UACC-62 melanoma
UO-31 renal = test system: UO-31 renal

## CCOC(=O)/C=C1/SC(=Nc2ccc(C#N)cc2)N(Cc2ccco2)C1=O
NCI-H460 lung
  GI50: 5.66 µM
  TGI: 19.7 µM
NCI-H522 lung
  GI50: 1.83 µM
  TGI: 4.12 µM
NCI/ADR-RES ovarian
  GI50: 3.42 µM
  TGI: 90.8 µM
OVCAR-3 ovarian
  GI50: 1.82 µM
  TGI: 3.52 µM
OVCAR-4 ovarian
  GI50: 2.74 µM
  TGI: 11.2 µM
OVCAR-5 ovarian
  GI50: 3.36 µM
  TGI: 16.1 µM
OVCAR-8 ovarian
  GI50: 2.83 µM
  TGI: 7.94 µM
PC-3 prostate
  GI50: 3.11 µM
  TGI: 9.96 µM
RPMI-8226 leukemia
  GI50: 2.4 µM
  TGI: 7.46 µM
RXF 393 renal
  GI50: 1.48 µM
  TGI: 2.96 µM
SF-268 CNS
  GI50: 3.38 µM
  TGI: 13.7 µM
SF-295 CNS
  GI50: 9.99 µM
  TGI: 26.6 µM
SF-539 CNS
  GI50: 3.09 µM
  TGI: 12.4 µM
SK-MEL-2 melanoma
  GI50: 7.65 µM
  TGI: 25.3 µM
SK-MEL-28 melanoma
  GI50: 2.92 µM
  TGI: 10.5 µM
SK-MEL-5 melanoma
  GI50: 6.71 µM
  TGI: 20.4 µM
SK-OV-3 ovarian
  GI50: 14.1 µM
  TGI: 29.9 µM
SN12C renal
  GI50: 2.45 µM
  TGI: 6.76 µM
SNB-19 CNS
  GI50: 3.83 µM
  TGI: 13.8 µM
SNB-75 CNS
  GI50: 10.3 µM
  TGI: 55.4 µM
SR leukemia
  GI50: 2.71 µM
  TGI: 8.41 µM
SW-620 colon
  GI50: 2.06 µM
  TGI: 4.97 µM
T-47D breast
  GI50: 2.57 µM
  TGI: 8.24 µM
TK-10 renal
  GI50: 2.54 µM
  TGI: 8.19 µM
U251 CNS
  GI50: 2.07 µM
  TGI: 4.06 µM
UACC-257 melanoma
  GI50: 5.34 µM
  TGI: 18.4 µM
UACC-62 melanoma
  GI50: 2.23 µM
  TGI: 5.25 µM
UO-31 renal
  GI50: 1.45 µM
  TGI: 2.86 µM
